In PMC13144739, “Global analysis of cancer cell responses to USP9X inhibition” (The EMBO Journal, 2026):

Assays:
USP9X catalytic domain = biological target: T1, USP9X catalytic domain (Homo sapiens, UniProt Q93008); assay: HDX-MS; format: binding; settings: 6 s deuterium exchange; 80 µM WEHI-092 or 30 µM FT709
T1 construct: His/SUMO (pOPIN-S vector) (N, cleaved yes); made in house; host or cells: E. coli BL21
T1 sequence (Q93008 1551-1970): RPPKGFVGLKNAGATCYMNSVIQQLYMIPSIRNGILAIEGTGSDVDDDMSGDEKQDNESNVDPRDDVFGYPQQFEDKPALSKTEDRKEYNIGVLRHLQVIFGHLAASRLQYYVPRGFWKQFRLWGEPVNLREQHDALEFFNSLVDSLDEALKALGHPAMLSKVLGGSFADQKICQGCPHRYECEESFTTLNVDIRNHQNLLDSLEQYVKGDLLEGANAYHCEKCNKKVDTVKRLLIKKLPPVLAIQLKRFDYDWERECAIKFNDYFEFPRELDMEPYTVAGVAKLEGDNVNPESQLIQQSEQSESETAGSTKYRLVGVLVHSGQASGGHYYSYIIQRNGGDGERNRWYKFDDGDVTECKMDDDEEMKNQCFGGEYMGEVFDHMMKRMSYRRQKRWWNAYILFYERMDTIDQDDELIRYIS
Method: Deuterium labelling of USP9X catalytic domain was performed as described previously (Asadollahi et al, [2023]) at 20 °C for periods of 0, 6, 60, 6000 s using a PAL Dual Head HDX Automation manager (Trajan/LEAP) controlled by the ChronosHDX software. […] Quenching was performed by adding 50 µL of the protein mix to 50 µL of quench buffer (50 mM potassium phosphate buffer [pH 2.3], 4 M guanidine hydrochloride and 0.1% [v/v] n-dodecylphosphocholine) at 1 °C. […] To further reduce peptide carryover, n-octyl-β-d-glucopyranoside at 1% (w/w) was added to the pepsin column wash solution (1.5 M guanidine hydrochloride, 4% [v/v] acetonitrile [ACN], 0.8% [v/v] FA). […] For MS, an ion mobility equipped SYNAPT G2-Si mass spectrometer (Waters) was used. Instrument settings were: 3.0 KV capillary and 40 V sampling cone with source and desolvation temperatures of 100 °C and 40 °C, respectively. The desolvation and cone gas flow were at 80 L/h and 100 L/h, respectively. High-energy ramp trap collision energy was from 20 to 40 V. All mass spectra were acquired using a 0.4 s scan time with continuous lock mass (Leu-Enk, 556.2771 m/z) for mass accuracy correction. […] The deuterium uptake values were calculated for each peptide using DynamX 3.0 (Waters). […]

CEP55 = CEP55 degradation by Western Blot in MDA-MB-231 cells; format: cell-based, human
Method: The next day, cells were lysed in DISC lysis buffer (20 mM TRIS/HCl [pH 7.5], 150 mM NaCl, 2 mM EDTA [pH 8.0], 1% [v/v] Triton X 100, 10% [v/v] glycerol) supplemented with 2% (w/v) SDS and PhosSTOP tablets (Roche). To shred DNA, DISC lysates were run through polypropylene columns (Pierce). […] Next, membranes were washed twice in TBS-T and incubated with primary antibodies at 4 °C o/n. Primary antibodies were diluted in antibody dilution buffer (5% [w/v] BSA [pH 5.2, Sigma-Aldrich] in TBS-T with 0.04% [v/v] sodium azide) as per the manufacturer’s instructions. […] Next, membranes were washed four times for 5 min each in TBS-T. Membranes were developed in ECL (Bio-Rad) and imaged using the ChemiDoc imaging system (Bio-Rad). Images were processed using Image Lab software.
Appendix Fig S4. WEHI-092 phenotypes across cell lines.
(A) IC50 of USP9X inhibitors in MDA-MB-231 cells measured via degradation of the USP9X substrate CEP55 by Western Blot. The compounds were incubated with cells for […]
biological repeats. Error bars, s.e.m. (B) Western Blot analysis of USP9X expression levels across a subset of cell lines used in this study. Representative blot from two independent biological repeats is shown with Actin as a sample loading control. l.p. - low passage; h.p. - high passage. […]
Right, quantification of images plotted as dose-dependent colony area. […]

HDFs = assay: Colony formation assay, HDF; format: cell-based, human; settings: 10 µM, 7–12 days
Method: Cells were seeded at low density (200–4000 cells per well) after initial optimisation in a six-well tissue culture-treated plate (Falcon). Twenty-four hours post seeding, media was replaced, and the inhibitor was added. Cells were left to grow into colonies between 7 and 12 days, depending on the cell line. For analysis, the media was removed, and the cells were fixed with 10% (w/v) formalin for 10 min. Colonies were stained with crystal violet (Sigma-Aldrich, 0.5% [w/v] in 20% [v/v] MeOH) for 10 min and washed thrice with distilled H2O. Plates were imaged using the ChemiDoc imaging system (Bio-Rad) and analysed using the ImageJ ColonyArea plugin as described previously (Guzmán et al, [2014]).

UO-31 cells = assay: Lattice light sheet imaging, UO-31; format: cell-based, human; settings: 15 µM, imaged 24-48 h
Method: MDA-MB-231, MiaPaca2, HMEC-1, SK-MEL-2 and UO-31 cells were seeded at 2–15 × 10^4 cells/mL in 8-well glass µ-slides (ibidi). […] SPY650-Tubulin, SPY555-DNA (both Spirochrome, Inc.), and Annexin V FITC (Sigma-Aldrich) were added at a final concentration of 1 in 1000. Cells were left to grow for 24 h before time-lapse live-cell data were acquired using a Lattice Light Sheet 7 (Zeiss). […] Aberration correction was set to a value of 170 to minimise aberrations as determined by imaging the Point Spread Function using 100 nm fluorescent microspheres. Data were collected with a frame time of 10 ms and a z step of 0.4 μm with 834 frames per 290 μm by 290 μm. Individual regions were imaged in parallel across six wells of the eight-well chamber slide. Data are presented as Maximum Intensity Projections (MIPs), and these MIPs were used for all downstream analysis. Tile regions were imaged for 24 h with 10 min intervals at 37 °C, 5% CO2. Analysis was performed using the MIPs of the different full fields of cells over the 24–48 h time period. Mitosis and mitosis arrest were classified through a combination of automated image analysis and manual validation. […] Small erroneous detected spots were further removed through a manually adjusted size filter. […] The mean intensity of all tracks was then measured to determine mitosis and mitosis arrest. […]

Cc1[nH]c2ccc(C(=O)N3CCN(S(=O)(=O)c4ccc5c(c4)OCCO5)CC3)cc2c1C [WEHI-092]
changes in hydrogen-deuterium uptake upon compound binding (USP9X catalytic domain): protection of five overlapping peptides that included residues 1757-1762
IC50 (CEP55; Homo sapiens, MDA-MB-231 cells, 24 h, read-out: apparent IC50 (CEP55 destabilisation, based on Western blotting)): 1300 nM
CEP55 protein level (CEP55; dose-dependent, Western blot): destabilised
clonogenic potential, HDF (HDFs): limited or no effects
arrested mitosis phenotype, UO-31 (UO-31 cells): did not display the arrested mitosis phenotype
